Measurements as given in US12617783B2, “Heterocyclic GLP-1R agonists” (BIOMEA FUSION, INC., priority 2024, dated 2026).

biological target: T1, human GLP-1R (Homo sapiens, UniProt P43220); assay: GLP-1R cAMP assay (Example B1a, HTRF, 30 min at room temperature); format: cell-based; conditions: cAMP accumulation in HEK293 expressing human GLP-1R, no BETP, 30 min room temperature (Method B1a, compounds ID 1-609), Table 1; read-out: EC50
T1 construct: host or cells: HEK293
Protocol: Assay was carried out with HEK293 expressing human GLP-1R using HTRF assay, developed by Wuxi Apptec. The method is a competitive assay between native cAMP produced by the cells and exogenous cAMP labeled with a proprietary dye d2. The tracer binding is visualized by a mAb anti-cAMP labeled with Cryptate. The signal (i.e. energy transfer) is inversely proportional to the concentration of CAMP in either standard or experimental sample. Compounds were tested in the absence of BETP. Ten microliter of cell suspension in assay buffer (5 mM HEPES, 500 μM IBMX, 0.1% BSA) were added to each well (1,000 cells per well) in a low volume 384-well plate for the assay. Serially diluted compounds were added in 100 nL volume to duplicate wells, by Labcyte Echo. GLP-1 (7-37) was used as positive control. Assay plate was incubated for 30 minutes at room temperature. Stock of cAMP Detection Solution was prepared by mixing 38 parts of cAMP lysis buffer, 1 part of cAMP-D2, 1 part of anti-cAMP cryptate reagent (Cisbio #62AM4PEJ). Ten microliter of the cAMP Detection Solution was added to each well, and the assay plate was incubated for 1 hour at room temperature in the dark. Plates were read on Envision plate reader. The data were analyzed by ScreenUltra in Dotmatics, with % activation expressed using following formula: (Well data−negative control)/(postive control−negative control)*100. Dose response curves were plotted and EC50 values calculated by non-linear regression using 4-parameter fit.

T1 sequence (P43220 24-463): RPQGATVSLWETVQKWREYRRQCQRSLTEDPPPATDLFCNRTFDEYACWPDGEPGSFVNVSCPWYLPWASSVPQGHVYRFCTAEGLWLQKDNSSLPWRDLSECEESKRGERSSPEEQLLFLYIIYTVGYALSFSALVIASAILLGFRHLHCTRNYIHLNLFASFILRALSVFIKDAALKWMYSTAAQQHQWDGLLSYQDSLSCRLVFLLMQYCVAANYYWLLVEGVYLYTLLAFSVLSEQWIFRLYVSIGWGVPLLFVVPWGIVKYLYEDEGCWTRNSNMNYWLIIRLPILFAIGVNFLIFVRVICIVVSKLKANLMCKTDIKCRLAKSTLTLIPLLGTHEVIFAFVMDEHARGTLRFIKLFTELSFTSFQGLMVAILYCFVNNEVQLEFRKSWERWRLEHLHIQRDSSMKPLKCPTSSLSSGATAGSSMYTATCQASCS

Row | Structure (SMILES) | EC50
1 | Cc1cc(-n2nc3c(c2-c2ncn(-c4ccc5c(cnn5C)c4F)c2C)[C@H](C)N(C(=O)c2cc4cc(C5CCC(F)(F)CC5)ccc4n2C2(c4noc(=O)[nH]4)CC2)CC3)cc(C)c1F [Compound 106, 3-[1-[5-(4,4-difluorocyclohexyl)-2-[(4S)-2-(4-fluoro-3,5-dimethyl-phenyl)-3-[1-(4-fluoro-1-methyl-indazol-5-yl)-5-methyl-imidazol-4-yl]-4-methyl-6,7-dihydro-4H-pyrazolo[4,3-c]pyridine-5-carbonyl]indol-1-yl]cyclopropyl]-4H-1,2,4-oxadiazol-5-one] | > 10000 nM
2 | Cc1cc(-n2nc3c(c2-n2ccn(-c4ccc5c(cnn5C)c4F)c2=O)[C@@H]2CC[C@H](C3)N2C(=O)c2cc3cc([C@H]4CCOC(C)(C)C4)ccc3n2C(C)(C)c2noc(=O)[nH]2)cc(C)c1F [Compound 140, 3-[1-[5-[(4S)-2,2-dimethyltetrahydropyran-4-yl]-2-[(1S,8R)-4-(4-fluoro-3,5-dimethyl-phenyl)-3-[3-(4-fluoro-1-methyl-indazol-5-yl)-2-oxo-imidazol-1-yl]-4,5,11-triazatricyclo[6.2.1.02,6]undeca-2,5-diene-11-carbonyl]indol-1-yl]-1-methyl-ethyl]-4H-1,2,4-oxadiazol-5-one] | > 10000 nM
3 | Cc1cc(-n2nc3c(c2-n2ccn(-c4ccc5c(cnn5C)c4F)c2=O)[C@@H]2CC[C@H](C3)N2C(=O)c2cc3sc(C4CCOC(C)(C)C4)nc3cc2C2(c3noc(=O)[nH]3)CC2)cc(C)c1F (stereo partly drawn) [Compound 133, 3-[1-[2-(2,2-dimethyltetrahydropyran-4-yl)-6-[(1S,8R)-4-(4-fluoro-3,5-dimethyl-phenyl)-3-[3-(4-fluoro-1-methyl-indazol-5-yl)-2-oxo-imidazol-1-yl]-4,5,11-triazatricyclo[6.2.1.02,6]undeca-2,5-diene-11-carbonyl]-1,3-benzothiazol-5-yl]cyclopropyl]-4H-1,2,4-oxadiazol-5-one] | > 10000 nM
4 | Cc1cc(-n2nc3c(c2-n2ccn(-c4ccc5c(cnn5C)c4F)c2=O)[C@@H]2CC[C@H](C3)N2C(=O)c2cc3cc([C@@H]4CCOC5(CC5)C4)ccc3n2[C@]2(c3noc(=O)[nH]3)C[C@H]2C)cc(C)c1F [Compound 516, 3-[(1R,2R)-1-[2-[(1S,8R)-4-(4-fluoro-3,5-dimethyl-phenyl)-3-[3-(4-fluoro-1-methyl-indazol-5-yl)-2-oxo-imidazol-1-yl]-4,5,11-triazatricyclo[6.2.1.02,6]undeca-2,5-diene-11-carbonyl]-5-[(7R)-4-oxaspiro[2.5]octan-7-yl]indol-1-yl]-2-methyl-cyclopropyl]-4H-1,2,4-oxadiazol-5-one] | ≥ 10000 nM
5 | Cc1cc(-n2nc3c(c2-n2ccn(-c4ccc5c(cnn5C)c4F)c2=O)[C@@H]2CC[C@H](C3)N2C(=O)c2cc3cc([C@H]4CCOC(C)(C)C4)ccc3n2[C@@]2(C(=O)NS(=O)(=O)C3CC3)C[C@@H]2C)cc(C)c1F [Compound 204, cis-(1S,2S)-N-cyclopropylsulfonyl-1-[5-[(4S)-2,2-dimethyltetrahydropyran-4-yl]-2-[(1S,8R)-4-(4-fluoro-3,5-dimethyl-phenyl)-3-[3-(4-fluoro-1-methyl-indazol-5-yl)-2-oxo-imidazol-1-yl]-4,5,11-triazatricyclo[6.2.1.02,6]undeca-2,5-diene-11-carbonyl]indol-1-yl]-2-methyl-cyclopropanecarboxamide] | > 10000 nM

Stronger by EC50, values ahead:

Row | EC50 | Structure (SMILES)
6 | 77.1 nM | Cc1cc(-n2nc3c(c2-n2ccn(-c4ccc5c(cnn5C)c4F)c2=O)C2CCCC(C3)N2C(=O)c2cc3cc([C@H]4CCOC(C)(C)C4)ccc3n2[C@@]2(c3noc(=O)[nH]3)C[C@@H]2C)cc(C)c1F (stereo partly drawn) [Compound 427, 3-((1S,2S)-1-(5-((S)-2,2-dimethyltetrahydro-2H-pyran-4-yl)-2-(3-(3-(4-fluoro-1-methyl-1H-indazol-5-yl)-2-oxo-2,3-dihydro-1H-imidazol-1-yl)-2-(4-fluoro-3,5-dimethylphenyl)-4,5,6,7,8,9-hexahydro-2H-4,8-epiminocycloocta [c]pyrazole-10-carbonyl)-1H-indol-1-yl)-2-methylcyclopropyl)-1,2,4-oxadiazol-5 (4H)-one]
7 | 672 nM | Cc1cc(-n2nc3c(c2-n2ccn(-c4ccc5c(cnn5C)c4F)c2=O)[C@@H]2CC[C@H](C3)N2C(=O)c2c(C)c3cc([C@H]4CCOC(C)(C)C4)ccc3n2[C@@]2(c3noc(=O)[nH]3)C[C@@H]2C)cc(C)c1F [Compound 532, 3-[(1S,2S)-1-[5-[(4S)-2,2-dimethyltetrahydropyran-4-yl]-2-[(1S,8R)-4-(4-fluoro-3,5-dimethyl-phenyl)-3-[3-(4-fluoro-1-methyl-indazol-5-yl)-2-oxo-imidazol-1-yl]-4,5,11-triazatricyclo[6.2.1.02,6]undeca-2,5-diene-11-carbonyl]-3-methyl-indol-1-yl]-2-methyl-cyclopropyl]-4H-1,2,4-oxadiazol-5-one]
8 | 259 nM | COc1ccc(-n2ccn(-c3c4c(nn3-c3cc(C)c(F)c(C)c3)C[C@H]3CC[C@@H]4N3C(=O)c3cc4cc([C@H]5CCOC(C)(C)C5)ccc4n3[C@@]3(c4noc(=O)[nH]4)C[C@@H]3C)c2=O)cc1 [Compound 223, 3-[(1S,2S)-1-[5-[(4S)-2,2-dimethyltetrahydropyran-4-yl]-2-[(1S,8R)-4-(4-fluoro-3,5-dimethyl-phenyl)-3-[3-(4-methoxyphenyl)-2-oxo-imidazol-1-yl]-4,5,11-triazatricyclo[6.2.1.02,6]undeca-2,5-diene-11-carbonyl]indol-1-yl]-2-methyl-cyclopropyl]-4H-1,2,4-oxadiazol-5-one]
9 | 292 nM | Cc1cc(-n2nc3c(c2-n2ccn(-c4ccc5c(cnn5C)c4F)c2=O)[C@@H]2CC[C@H](C3)N2C(=O)c2cc3cc([C@@H]4COC(C)(C)C4)ccc3n2[C@@]2(c3noc(=O)[nH]3)C[C@@H]2C)cc(C)c1F [Compound 425, 3-[(1S,2S)-1-[5-[(3R)-5,5-dimethyltetrahydrofuran-3-yl]-2-[(1S,8R)-4-(4-fluoro-3,5-dimethyl-phenyl)-3-[3-(4-fluoro-1-methyl-indazol-5-yl)-2-oxo-imidazol-1-yl]-4,5,11-triazatricyclo[6.2.1.02,6]undeca-2,5-diene-11-carbonyl]indol-1-yl]-2-methyl-cyclopropyl]-4H-1,2,4-oxadiazol-5-one]
10 | 839 nM | Cc1cc(-n2nc3c(c2-n2ccn(-c4ccc5c(cnn5C)c4F)c2=O)[C@@H]2CCC[C@H](C3)N2S(=O)(=O)c2cc3cc([C@@H]4CCOC5(CC5)C4)ccc3n2[C@@]2(c3noc(=O)[nH]3)C[C@@H]2C)cc(C)c1F [Compound 604, 3-[(1S,2S)-1-[2-[[(1S,8R)-4-(4-fluoro-3,5-dimethyl-phenyl)-3-[3-(4-fluoro-1-methyl-indazol-5-yl)-2-oxo-imidazol-1-yl]-4,5,12-triazatricyclo[6.3.1.02,6]dodeca-2,5-dien-12-yl]sulfonyl]-5-[(7R)-4-oxaspiro[2.5]octan-7-yl]indol-1-yl]-2-methyl-cyclopropyl]-4H-1,2,4-oxadiazol-5-one]
11 | 469 nM | Cc1cc(-n2nc3c(c2-n2ccn(-c4ccc5c(cnn5C)c4F)c2=O)[C@@H]2CC[C@H](C3)N2C(=O)c2cc3ccc([C@@H]4CCOC(C)(C)C4)cc3nc2[C@@]2(c3noc(=O)[nH]3)C[C@@H]2C)cc(C)c1F [Compound 319, 3-[(1R,2S)-1-[7-[(4R)-2,2-dimethyltetrahydropyran-4-yl]-3-[(1S,8R)-4-(4-fluoro-3,5-dimethyl-phenyl)-3-[3-(4-fluoro-1-methyl-indazol-5-yl)-2-oxo-imidazol-1-yl]-4,5,11-triazatricyclo[6.2.1.02,6]undeca-2,5-diene-11-carbonyl]-2-quinolyl]-2-methyl-cyclopropyl]-4H-1,2,4-oxadiazol-5-one]
